Patent US11680297B2, “Activities of multiple cancer-related pathways are associated with BRAF mutation and predict the resistance to BRAF/MEK inhibitors in melanoma cells” (THE JOHNS HOPKINS UNIVERSITY, priority 2013, dated 2023)

Columns and labels:
[1] = test system: PLX4032-resistant melanoma cell lines; details: two PLX4032-resistant melanoma cell lines; cited from earlier work
RPMI-7951 cells = assay: Cell proliferation (MTT) assay; assay type: cell-based; details: Homo sapiens, RPMI-7951, 72 h treatment
Experimental: (§1) After 72 h treatments, cell culture was added with 10 μl of 5 mg/ml MTT agent (3-(4,5-Dimethylthiazol-2-yl)-2,5-diphenyltetrazolium bromide, Sigma St. Louis, Mo.) and incubated for 4 h, followed by addition of 100 μl of 10% SDS solution and a further incubation overnight. The plates were then read on a microplate reader using the test wavelength of 570 nm and the reference wavelength of 670 nm. Five duplicates were done to determine each data point. GI50 was calculated as previously reported (21).

SK-MEL-24 cells = assay: Cell proliferation (MTT) assay; assay type: cell-based; details: Homo sapiens, SK-MEL-24, 72 h treatment
Experimental: as §1

Row | SMILES | effect in combination with PLX4032 [1] | GI50 (RPMI-7951 cells) [nM] | GI50 (SK-MEL-24 cells) [nM]
1 | CS(=O)(=O)CCNCc1ccc(-c2ccc3ncnc(Nc4ccc(OCc5cccc(F)c5)c(Cl)c4)c3c2)o1 [Lapatinib] | apparently synergistic effects | – | –
2 | Cn1cnc2c(F)c(Nc3ccc(Br)cc3Cl)c(C(=O)NOCCO)cc21 [AZD6244, selumetinib] | – | > 1000 | > 1000
